“And” between values parts separate entries of the source, which are not always exact repeats. Identical values can stand only once.
Test system: 435261-313-R-J1-PDC tumor spheroid viability
Assay: Anticancer human tumor 435261-313-R-J1-PDC patient-derived colon adenocarcinoma cell line growth inhibition [PI3K]
Settings: spheroids with HUVEC and MSC; for IC50: curve of first compound; for viability, T/C: stronger effect = lower value
How it was run: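 Tumor cells grown as multi-cell spheroids with HUVEC endothelial cells and MSC fibroblast-like stroma were treated with targeted agents combined with inavolisib, alpelisib, duvelisib or copanlisib. Doses fell in half-log steps from near clinical Cmax, else from 10 microM. Viability was measured.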

[1] = second compound 0.0316 µM, first compound 0.0316 µM
[2] = second compound 0.0316 µM, first compound 0.1 µM
[3] = second compound 0.0316 µM, first compound 0.316 µM
[4] = second compound 0.0316 µM, first compound 1 µM
[5] = second compound 0.0316 µM, first compound 3.16 µM
[6] = second compound 0.0316 µM, first compound 10 µM
[7] = second compound 0.1 µM, first compound 0.0316 µM
[8] = second compound 0.1 µM, first compound 0.1 µM
[9] = second compound 0.1 µM, first compound 0.316 µM
[10] = second compound 0.1 µM, first compound 1 µM
[11] = second compound 0.1 µM, first compound 3.16 µM
[12] = second compound 0.1 µM, first compound 10 µM
[13] = second compound 0.316 µM, first compound 0.0316 µM
[14] = second compound 0.316 µM, first compound 0.1 µM
[15] = second compound 0.316 µM, first compound 0.316 µM
[16] = second compound 0.316 µM, first compound 1 µM
[17] = second compound 0.316 µM, first compound 3.16 µM
[18] = second compound 0.316 µM, first compound 10 µM
[19] = second compound 1 µM, first compound 0.0316 µM
[20] = second compound 1 µM, first compound 0.1 µM
[21] = second compound 1 µM, first compound 0.316 µM
[22] = second compound 1 µM, first compound 1 µM
[23] = second compound 1 µM, first compound 3.16 µM
[24] = second compound 1 µM, first compound 10 µM
[25] = second compound 3.16 µM, first compound 0.0316 µM
[26] = second compound 3.16 µM, first compound 0.1 µM
[27] = second compound 3.16 µM, first compound 0.316 µM
[28] = second compound 3.16 µM, first compound 1 µM
[29] = second compound 3.16 µM, first compound 3.16 µM
[30] = second compound 3.16 µM, first compound 10 µM
[31] = second compound 10 µM, first compound 0.0316 µM
[32] = second compound 10 µM, first compound 0.1 µM
[33] = second compound 10 µM, first compound 0.316 µM
[34] = second compound 10 µM, first compound 1 µM
[35] = second compound 10 µM, first compound 3.16 µM
[36] = second compound 10 µM, first compound 10 µM
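Note: spheroids exposed to compounds for 7 days.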

`CC1(C)CCC(CN2CCN(c3ccc(C(=O)NS(=O)(=O)c4ccc(NCC5CCOCC5)c([N+](=O)[O-])c4)c(Oc4cnc5[nH]ccc5c4)c3)CC2)=C(c2ccc(Cl)cc2)C1` + Cc1nc(NC(=O)N2CCCC2C(N)=O)sc1-c1ccnc(C(C)(C)C(F)(F)F)c1 gave an IC50 (second compound 0.0316 µM) of 5030 nM, an IC50 (second compound 0.1 µM) of 4930 nM and an IC50 (second compound 0.316 µM) of 3530 nM. For the same compound, the IC50 (second compound 1 µM) was < 31.6 nM, the IC50 (second compound 3.16 µM) was < 31.6 nM and the IC50 (second compound 10 µM) was < 31.6 nM. The viability, T/C [1] was 50.2%, the viability, T/C [2] was 81.4% and the viability, T/C [3] was 78.5%. The viability, T/C [4] was 83%, the viability, T/C [5] was 95.5% and the viability, T/C [6] was 8.94%. For the same compound, the viability, T/C [7] was 51.2%, the viability, T/C [8] was 74.1% and the viability, T/C [9] was 93.8%. For the same compound, the viability, T/C [10] was 69.1%, the viability, T/C [11] was 90.8% and the viability, T/C [12] was 8.73%. For the same compound, the viability, T/C [13] was 50.5%, the viability, T/C [14] was 57.7% and the viability, T/C [15] was 44%. For the same compound, the viability, T/C [16] was 61.1%, the viability, T/C [17] was 58.6% and the viability, T/C [18] was 9.2%. The viability, T/C [19] was 26.7%, the viability, T/C [20] was 24.3% and the viability, T/C [21] was 27.9%. The viability, T/C [22] was 25.4%, the viability, T/C [23] was 22.6% and the viability, T/C [24] was 4.29%. For the same compound, the viability, T/C [25] was 16.6%, the viability, T/C [26] was 16.1% and the viability, T/C [27] was 13.4%. For the same compound, the viability, T/C [28] was 18.5%, the viability, T/C [29] was 18.1% and the viability, T/C [30] was 4.62%. For the same compound, the viability, T/C [31] was 9.42%, the viability, T/C [32] was 8.27% and the viability, T/C [33] was 7.16%. For the same compound, the viability, T/C [34] was 8.26%, the viability, T/C [35] was 8.41% and the viability, T/C [36] was 2.21%.

For `Cn1nccc1Nc1nccc(-c2ccn(C(CO)c3ccc(Cl)c(F)c3)c(=O)c2)n1` (stereo not given) + Cc1nc(NC(=O)N2CCCC2C(N)=O)sc1-c1ccnc(C(C)(C)C(F)(F)F)c1, the IC50 (second compound 0.0316 µM) was 147 nM, the IC50 (second compound 0.1 µM) was 119 nM and the IC50 (second compound 0.316 µM) was < 31.6 nM. The IC50 (second compound 1 µM) was < 31.6 nM, the IC50 (second compound 3.16 µM) was < 31.6 nM and the IC50 (second compound 10 µM) was < 31.6 nM. It also gave a viability, T/C [1] of 62.5%, a viability, T/C [2] of 58.2% and a viability, T/C [3] of 37%. It also gave a viability, T/C [4] of 24.5%, a viability, T/C [5] of 20.9% and a viability, T/C [6] of 11.4%. It also gave a viability, T/C [7] of 53.1%, a viability, T/C [8] of 54.8% and a viability, T/C [9] of 32.4%. It also gave a viability, T/C [10] of 18.5%, a viability, T/C [11] of 17.9% and a viability, T/C [12] of 10.8%. The viability, T/C [13] was 36%, the viability, T/C [14] was 36.4% and the viability, T/C [15] was 21.3%. For the same compound, the viability, T/C [16] was 12.9%, the viability, T/C [17] was 14% and the viability, T/C [18] was 7.34%. It also gave a viability, T/C [19] of 19.1%, a viability, T/C [20] of 18.9% and a viability, T/C [21] of 11.6%. For the same compound, the viability, T/C [22] was 8%, the viability, T/C [23] was 7.78% and the viability, T/C [24] was 3.02%. The viability, T/C [25] was 13.6%, the viability, T/C [26] was 10.8% and the viability, T/C [27] was 9.01%. The viability, T/C [28] was 4.15%, the viability, T/C [29] was 3.68% and the viability, T/C [30] was 1.12%. It also gave a viability, T/C [31] of 7.41%, a viability, T/C [32] of 4.45% and a viability, T/C [33] of 2.55%. It also gave a viability, T/C [34] of 1.89%, a viability, T/C [35] of 0.52% and a viability, T/C [36] of 0.24%.

In the case of `CCN1CCN(Cc2ccc(Nc3ncc(F)c(-c4cc(F)c5nc(C)n(C(C)C)c5c4)n3)nc2)CC1`, the viability, T/C (compound 0.00316 µM) is reported as 78.8% and 104% and 106%, the viability, T/C (compound 0.01 µM) is reported as 94.5% and 76.5% and 82.8% and the viability, T/C (compound 0.0316 µM) is reported as 61.7% and 67.7% and 78.4%. For the same compound, the viability, T/C (compound 0.1 µM) was 48.9% and 58.6% and 55.6%, the viability, T/C (compound 0.316 µM) was 47.7% and 44.3% and 50.4% and the viability, T/C (compound 1 µM) was 40.8% and 56.3% and 51.8%.
